Measurements reported in ChEMBL document CHEMBL3045189, “Ginsenoside Re downregulates ICAM-1 expression, inhibits polymorphonuclear infiltration, and ameliorates ischemia-reperfusion injury” (2010).
Activity calls are given as the source filed them. The rule behind the calls is not given here.

What was measured:
[1] = test system: Rattus norvegicus; test: (§1) Cardioprotective activity in Rattus norvegicus Sprague-Dawley (rat) ischemia-reperfusion injury model assessed as area at risk in myocardial tissue at 20 mg/kg, iv administered 10 min prior to ischemia-reperfusion establishment measured after 6 hr by Evans blue staining-based planimetric analysis (reference value: 49.8 +/- 3.7 %); format: functional, Myocardium
[2] = test system: Rattus norvegicus; test: Downregulation of ICAM-1 expression in Rattus norvegicus Sprague-Dawley (rat) heart at 20 mg/kg, iv measured 10 min post LAD ligation by Western blot analysis relative to untreated control; format: functional, organism-based; set-up: dose 20 mg/kg
[3] = test system: Rattus norvegicus; test: as §1, with “decrease” for “area at risk”, “infarct size” for “tissue”, “tetrazolium chloride” for “Evans blue”, “42.6” for “49.8”, “3.8” for “3.7”; format: functional, Myocardium; set-up: scale not given: the % may be the effect or the level left
[4] = test system: Rattus norvegicus; test: (§2) Cardioprotective activity in Rattus norvegicus Sprague-Dawley (rat) ischemia-reperfusion injury model assessed as decrease in myeloperoxidase activation in myocardial tissue at 20 mg/kg, iv measured 10 min prior to reperfusion measured at 6 hr by spectrophotometric analysis relative to untreated control; format: functional, organism-based; set-up: dose 20 mg/kg; details: Myocardium
[5] = test system: Rattus norvegicus; test: as §2, with “polymorphonuclear leukocytes infiltration” for “myeloperoxidase activation”, “hematoxylin-eosin staining-based light microscopy” for “spectrophotometric analysis”; format: functional, organism-based; set-up: dose 20 mg/kg; details: Myocardium

CC(C)=CCC[C@](C)(O[C@@H]1O[C@H](CO)[C@@H](O)[C@H](O)[C@H]1O)[C@H]1CC[C@]2(C)[C@@H]1[C@H](O)C[C@@H]1[C@@]3(C)CC[C@H](O)C(C)(C)[C@@H]3[C@@H](O[C@@H]3O[C@H](CO)[C@@H](O)[C@H](O)[C@H]3O[C@@H]3O[C@@H](C)[C@H](O)[C@@H](O)[C@H]3O)C[C@]12C [GINSENOSIDE RE]
Activity [1]: 50.3%
Activity [2]: Active
Activity [3]: 42.6%
Activity [4]: Active
Activity [5]: Active
